Data taken from article PMC7591795, “Humulone Modulation of GABAA Receptors and Its Role in Hops Sleep-Promoting Activity” (Frontiers in Neuroscience, 2020).
Values after ≈ are worked out from the molar mass of the structure shown. “Also recorded” adds a separate entry of the source. Where two headings read alike, the source gives them in different places.

Assays:
[1] = tested on: native GABAA receptors in rat forebrain membranes; test: [3H]EBOB binding assay, rat forebrain membranes; settings: each compound 1 μM, GABA 3 μM, n = 3
Procedure: (§1) The protein concentrations of brain membranes were determined with the Bio-Rad Coomassie blue dye-based protein assay kit (Hercules, CA, United States) as per the manufacturer’s protocol. Transfected HEK293 cells were harvested 48 h after transfection using a detaching buffer (10 mM Tris-HCl, 0.15 M NaCl, 2 mM EDTA) and centrifuged at 20,000 g for 10 min at +4 °C. The resulting pellets were suspended in the assay buffer for binding assays.
(§2) In humulone concentration series with recombinant α6β3, α6β3γ2S, and α6β3δ receptors, HEK293 cell membranes were incubated in the same above conditions for 120 min with [^3H]EBOB (1 nM) and different concentrations of humulone (30 nM–30 μM) in the presence or absence of ethanol (30 mM). […] Picrotoxin (100 μM) was used to determine the non-specific binding in all assays.
(§3) Membrane samples were filtered through Whatman GF/B glass fiber filters (Whatman International Ltd., Maidstone, United Kingdom) using a Brandel Cell Harvester (model M-24, Gaithersburg, MD, United States). The filters were rinsed three times with 5 mL of ice-cold 10 mM Tris-HCl, pH 7.4 buffer. Air-dried filters were immersed in 3 mL of Hidex AquaLight Beta scintillation liquid and radioactivity was determined in Hidex 600 SL liquid scintillation counter (Hidex, Turku, Finland).

[2] = target: native GABAA receptors in rat forebrain membranes; design: method as in Benkherouf et al., 2020; settings: ref Benkherouf et al., 2020, cited from earlier work
[3] = tested on: native GABAA receptors in rat cerebellar membranes; format: binding
Procedure: as §1, §2, §3

[4] = target: T1, recombinant α6β3 GABAA receptors (Rattus norvegicus, UniProt P30191+P63079); test: [3H]EBOB binding assay, recombinant α6β3 receptors in HEK293 cell membranes; settings: GABA 3 μM
T1 construct: expressed in transfected cells; host or cells: HEK293 cells, transient CaPO4 transfection, pRK5 plasmids (1:1); cell membranes used
Procedure: (§4) The cells were divided and plated on 150 mm culture dishes for binding assays and 12 mm coverslips in 24-well cell culture plates for electrophysiology 24 h before transfection.
(§5) The cells were transiently transfected with rat cDNAs encoding GABAA receptor subunits (α1, L08490; α6, L08495; β3, X15468; γ2S, L08497; δ, L08496) in pRK5 plasmids under the control of CMV promoter ([Uusi-Oukari et al., 2000]). The plasmids were used in 1:1 and 1:1:1 ratio for transfections containing α1β3γ2S, α6β3, α6β3γ2S, and α6β3δ receptor subtypes. […] (Supplementary Figure S1). For electrophysiology, K4® transfection system (Biontex, München, Germany) was used according to the manufacturer’s protocol to increase expression efficiency and cell viability. […] The medium was changed 24 h after transfection and all experiments were performed 48 h after transfection.
as §1, §2, §3

rats = settings: ref Bejeuhr, 1993, cited from earlier work
BALB/cAnNRj mice [5] = test: Ethanol-induced sleep test; settings: ethanol 3.5 g/kg i.p.; for duration of sleep induced by ethanol: vs control
BALB/cAnNRj mice [6] = test: Open field test (spontaneous locomotor activity); format: in vivo
Procedure: Each mouse was then placed individually into the center of a brightly illuminated white Plexiglass arena (50 × 50 × 38 cm) and recorded continuously for 15 min with Ethovision version 13 tracking system (Noldus, Wageningen, The Netherlands). The parameters of locomotor activity such as distance and velocity were quantified and analyzed for the whole and subsections of the arena. All arena surfaces were thoroughly cleaned with 70% ethanol and dried between each tested subject.

mice = tested on: mice; design: method as in Schiller et al., 2006; settings: ref Schiller et al., 2006, cited from earlier work
[7] = tested on: native αβγ2 GABAA receptors, classical benzodiazepine binding site; design: method as in Benkherouf et al., 2019, 2020; settings: ref Benkherouf et al., 2019, 2020, cited from earlier work
[8] = target: T2, recombinant α1β3γ2 GABAA receptors (Rattus norvegicus, UniProt P18508+P62813+P63079); test: Whole-cell patch-clamp of GABA-induced currents in transfected HEK293 cells; format: cell-based; settings: humulone 10 μM, GABA 1 μM, 1 min application, −60 mV, n = 8 cells
T2 construct: expressed in transfected cells; host or cells: HEK293 cells, transient transfection (K4 transfection system), pRK5 plasmids; EGFP co-transfected from a separate pWPI plasmid
Procedure: Human embryonic kidney (HEK) 293 cells (Sigma- Aldrich, St Louis, MO, United States) were maintained in Dulbecco’s modified Eagle’s medium supplemented with 10% fetal bovine serum (Gibco, Gaithersburg, MD; United States), 50 U/mL penicillin and 50 μg/mL streptomycin (Sigma-Aldrich, St Louis, MO, United States) under standard growth conditions at 37°C, 95% humidity and 5% CO2. The cells were divided and plated on 150 mm culture dishes for binding assays and 12 mm coverslips in 24-well cell culture plates for electrophysiology 24 h before transfection.
The cells were transiently transfected with rat cDNAs encoding GABAA receptor subunits (α1, L08490; α6, L08495; β3, X15468; γ2S, L08497; δ, L08496) in pRK5 plasmids under the control of CMV promoter ([Uusi-Oukari et al., 2000]). The plasmids were used in 1:1 and 1:1:1 ratio for transfections containing α1β3γ2S, α6β3, α6β3γ2S, and α6β3δ receptor subtypes. For radioligand binding, CaPO4 precipitation method was used essentially as described earlier ([Lüddens and Korpi, 1997]). […]
The cells were continuously perfused with external HEK-Krebs solution containing (in mM): 140 NaCl, 4.7 KCl, 1.2 MgCl2, 2.52 CaCl2, 11 glucose, and 5 HEPES, pH 7.4 adjusted with […]. […] The external solution and drug solutions were driven by gravity at the flow rate of 5 mL/min and the current responses were recorded at room temperature (20–22°C).

[9] = target: T3, recombinant α6β3γ2 GABAA receptors (Rattus norvegicus, UniProt P18508+P30191+P63079); test: [3H]EBOB binding assay, recombinant α6β3γ2 receptors in HEK293 cell membranes; settings: GABA 3 μM
T3 construct: expressed in transfected cells; host or cells: HEK293 cells, transient CaPO4 transfection, pRK5 plasmids; cell membranes used
Procedure: as §4, §5, §1, §2, §3

BALB/cAnNRj mice [10] = test: Pentobarbital-induced sleep test
Procedure: As an index of drug-induced CNS inhibition, sleep latency (time between pentobarbital administration and loss of righting reflex) and duration of sleep (time between loss and recovery of righting reflex) were measured with a chronometer for each mouse. The recovery of the righting reflex was confirmed by the ability of the mice to re-right 3 times within 1 min. The drugs were freshly prepared before use, and the total injection volume (13 mL/kg) was retained constant.

[11] = target: T4, recombinant α6β3δ GABAA receptors (Rattus norvegicus, UniProt P18506+P30191+P63079); test: [3H]EBOB binding assay, recombinant α6β3δ receptors in HEK293 cell membranes; settings: GABA 3 μM
T4 construct: expressed in transfected cells; host or cells: HEK293 cells, transient CaPO4 transfection, pRK5 plasmids; cell membranes used
Procedure: as §4, §5, §1, §2, §3

[12] = design: method as in Fritsch and Shellhammer, 2007; settings: ref Fritsch and Shellhammer, 2007; cited from earlier work
GABAA receptors = tested on: GABAA receptors; design: method as in Benkherouf et al., 2020; settings: ref Benkherouf et al., 2020; cited from earlier work
[13] = humulone 10 mg/kg i.p. vs control
[14] = humulone 20 mg/kg i.p., 45 min after administration, 15 min observation, vs vehicle, p < 0.01
[15] = humulone 10 mg/kg i.p., pentobarbital sodium 35 mg/kg i.p.
[16] = ethanol 30 mM co-incubated with humulone 1 μM

T3 sequence (P30191 20-453): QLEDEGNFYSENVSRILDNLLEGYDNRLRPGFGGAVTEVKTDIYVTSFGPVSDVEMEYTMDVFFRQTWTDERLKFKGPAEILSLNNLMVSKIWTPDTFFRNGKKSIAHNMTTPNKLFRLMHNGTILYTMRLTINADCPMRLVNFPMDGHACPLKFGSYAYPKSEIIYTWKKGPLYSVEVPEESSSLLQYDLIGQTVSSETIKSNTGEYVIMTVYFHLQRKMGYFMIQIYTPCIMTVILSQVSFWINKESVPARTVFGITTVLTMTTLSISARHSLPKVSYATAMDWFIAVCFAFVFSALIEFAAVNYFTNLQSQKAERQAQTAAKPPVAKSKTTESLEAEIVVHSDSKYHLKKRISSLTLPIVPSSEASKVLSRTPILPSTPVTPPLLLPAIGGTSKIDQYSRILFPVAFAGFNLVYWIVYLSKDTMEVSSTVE
T3 sequence (P63079 26-473): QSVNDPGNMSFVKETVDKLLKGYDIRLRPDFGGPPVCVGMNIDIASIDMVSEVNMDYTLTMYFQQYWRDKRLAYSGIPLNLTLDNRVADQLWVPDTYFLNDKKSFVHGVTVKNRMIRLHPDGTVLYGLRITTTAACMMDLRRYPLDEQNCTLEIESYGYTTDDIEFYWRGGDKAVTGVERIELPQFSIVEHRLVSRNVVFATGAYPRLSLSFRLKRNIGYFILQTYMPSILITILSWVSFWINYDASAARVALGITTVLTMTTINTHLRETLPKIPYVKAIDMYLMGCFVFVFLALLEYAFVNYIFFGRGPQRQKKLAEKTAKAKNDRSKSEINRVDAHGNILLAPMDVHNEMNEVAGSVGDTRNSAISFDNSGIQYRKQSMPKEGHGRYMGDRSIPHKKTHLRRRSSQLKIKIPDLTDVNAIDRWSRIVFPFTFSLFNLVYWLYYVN
T3 sequence (P18508 39-466): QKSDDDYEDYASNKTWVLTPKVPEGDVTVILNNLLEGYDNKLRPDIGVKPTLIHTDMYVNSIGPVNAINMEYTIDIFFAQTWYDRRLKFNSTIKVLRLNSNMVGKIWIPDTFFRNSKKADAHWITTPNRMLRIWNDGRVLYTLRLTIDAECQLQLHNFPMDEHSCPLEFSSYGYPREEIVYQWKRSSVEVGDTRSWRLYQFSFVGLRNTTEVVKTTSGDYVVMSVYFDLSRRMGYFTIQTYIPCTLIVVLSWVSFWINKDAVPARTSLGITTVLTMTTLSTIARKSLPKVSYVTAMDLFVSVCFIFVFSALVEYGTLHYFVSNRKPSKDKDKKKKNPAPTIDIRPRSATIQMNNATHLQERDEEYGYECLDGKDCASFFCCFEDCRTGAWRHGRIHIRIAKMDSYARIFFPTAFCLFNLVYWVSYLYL
T1 sequence (P30191 20-453): as the sequence (P30191 20-453) above
T1 sequence (P63079 26-473): as the sequence (P63079 26-473) above
T4 sequence (P30191 20-453): as the sequence (P30191 20-453) above
T4 sequence (P63079 26-473): as the sequence (P63079 26-473) above
T4 sequence (P18506 25-449): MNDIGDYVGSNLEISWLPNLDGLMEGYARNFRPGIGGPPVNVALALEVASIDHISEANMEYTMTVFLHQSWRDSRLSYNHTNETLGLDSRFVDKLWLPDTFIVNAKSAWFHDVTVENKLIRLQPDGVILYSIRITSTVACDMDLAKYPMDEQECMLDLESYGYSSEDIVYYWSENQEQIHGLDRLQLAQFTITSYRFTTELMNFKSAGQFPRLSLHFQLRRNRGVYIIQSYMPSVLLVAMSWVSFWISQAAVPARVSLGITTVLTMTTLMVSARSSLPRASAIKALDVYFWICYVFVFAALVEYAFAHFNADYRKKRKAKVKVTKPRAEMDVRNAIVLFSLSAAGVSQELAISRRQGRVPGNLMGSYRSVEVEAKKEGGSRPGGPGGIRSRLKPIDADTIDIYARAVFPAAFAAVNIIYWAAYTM
T2 sequence (P62813 28-455): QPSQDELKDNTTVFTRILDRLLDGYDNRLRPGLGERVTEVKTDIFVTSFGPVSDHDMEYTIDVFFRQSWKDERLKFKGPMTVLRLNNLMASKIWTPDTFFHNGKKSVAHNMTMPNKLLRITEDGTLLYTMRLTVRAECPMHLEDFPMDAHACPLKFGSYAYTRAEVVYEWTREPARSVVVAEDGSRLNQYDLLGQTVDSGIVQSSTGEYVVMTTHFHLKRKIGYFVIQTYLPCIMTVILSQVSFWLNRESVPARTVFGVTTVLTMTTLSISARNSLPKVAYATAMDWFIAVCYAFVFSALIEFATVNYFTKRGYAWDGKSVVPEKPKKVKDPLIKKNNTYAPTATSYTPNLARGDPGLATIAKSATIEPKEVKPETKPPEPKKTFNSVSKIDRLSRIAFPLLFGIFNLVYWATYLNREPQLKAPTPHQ
T2 sequence (P63079 26-473): as the sequence (P63079 26-473) above
T2 sequence (P18508 39-466): as the sequence (P18508 39-466) above

Structure (SMILES): CC(C)=CCC1=C(O)[C@@](O)(CC=C(C)C)C(=O)C(C(=O)CC(C)C)=C1O [humulone]
- [3H]EBOB displacement normalized to the maximum radioligand binding in the presence of 3 μM GABA alone [1]: 13.5 ± 1.5%
- IC50 ([2]; rat forebrain membranes, read-out: IC50, modulation of [3H]EBOB binding): 3.2 ± 0.4 µM
- sensitivity of modulatory effect on [3H]EBOB binding to flumazenil antagonism [2]: insensitive
- sensitivity of modulatory effect on [3H]EBOB binding to flumazenil antagonism ([2]; listed as humulone fraction): insensitivity
- extent of humulone non-competitive synergy with ethanol, cerebellum compared to forebrain ([3]; humulone 1 μM + ethanol 30 mM, from Table 1): 11.2%
- concentration at which potentiation of GABA-induced [3H]EBOB displacement was observed [4]: ≥ 10 µM
- effect on [3H]EBOB displacement induced by GABA ([4]; humulone 1 μM): absent
- LD50 (rats; i.m. (rats)): 600 mg/kg/b.w.
- LD50 (rats; p.o., rodents): 1,500 mg/kg/b.w.
- duration of sleep induced by ethanol (BALB/cAnNRj mice [5]; humulone 10 mg/kg i.p., p < 0.05): significantly increased
- duration of sleep induced by ethanol (BALB/cAnNRj mice [5]; humulone 20 mg/kg i.p., p < 0.001): significantly increased
- onset of sleep induced by ethanol (BALB/cAnNRj mice [5]; humulone 10 or 20 mg/kg i.p.): no effect
- significant difference in average velocity in open field (BALB/cAnNRj mice [6]; [13]): not observed
- significant difference in total distance traveled in open field (BALB/cAnNRj mice [6]; [13]): not observed
- average velocity in open field (BALB/cAnNRj mice [6]; [14]): lower
- total distance traveled in open field (BALB/cAnNRj mice [6]; [14]): shorter
- time spent in periphery and center in open field (BALB/cAnNRj mice [6]; humulone 10 and 20 mg/kg i.p. vs vehicle, Supplementary Figure S3): no differences
- duration of sleep induced by ketamine (mice; humulone component in alpha acid extract at 21 mg/kg): increase
- duration of sleep induced by ketamine, additional effect at higher dose (mice; humulone component in alpha acid extract at 42 mg/kg): no additional effect
- displacement of [3H]Ro 15-4513 binding (benzodiazepine binding site) [7]: very weak displacement
- displacement of [3H]Ro 15-4513 binding (benzodiazepine binding site) ([7]; listed as humulone fraction): low potency
- potentiation of GABA-induced peak current amplitude, normalized to 1 μM GABA alone [8]: 158 ± 41%
- concentration at which potentiation of GABA-induced [3H]EBOB displacement was observed [9]: ≥ 10 µM
- effect on [3H]EBOB displacement induced by GABA ([9]; humulone 1 μM): absent
- duration of sleep induced by pentobarbital (BALB/cAnNRj mice [10]; [15]): not observed
- sleep latency induced by pentobarbital (BALB/cAnNRj mice [10]; [15]): not observed
- duration of sleep induced by pentobarbital (BALB/cAnNRj mice [10]; humulone 20 mg/kg i.p., 45 min before pentobarbital sodium 35 mg/kg i.p., vs control, p < 0.001): prolonged
- sleep latency induced by pentobarbital (BALB/cAnNRj mice [10]; humulone 20 mg/kg i.p., 45 min before pentobarbital sodium 35 mg/kg i.p., vs control, p < 0.01): significantly decreased
- concentration at which potentiation of GABA-induced [3H]EBOB displacement was evident ([11]; α6β3δ): ≥ 1 µM
- increase in potency in α6β3δ compared to α6β3 receptors ([11]; ratio of IC50 values): 6.7 fold
- increase in potency in α6β3δ compared to α6β3γ2 receptors ([11]; ratio of IC50 values): 5.8 fold
- solubility in beer [12]: 14 µg/mL (≈ 38.6 µM)

Structure (SMILES): CCC(C)C(=O)C1=C(O)C(CC=C(C)C)=C(O)C(O)(CC=C(C)C)C1=O (stereo not drawn) [adhumulone]
- modulatory effects on GABAA receptors (GABAA receptors): weak modulatory effects

Structure (SMILES): CC(C)=CCc1c(O)cc2c(c1O)C(=O)C[C@@H](c1ccc(O)cc1)O2 [6PN, 6-prenylnaringenin]
- [3H]EBOB displacement normalized to the maximum radioligand binding in the presence of 3 μM GABA alone [1]: 14.2 ± 1.4%
- sensitivity of modulatory effect on [3H]EBOB binding to flumazenil antagonism [2]: insensitivity
- displacement of [3H]Ro 15-4513 binding (benzodiazepine binding site) [7]: remarkably more efficient

Structure (SMILES): CCO [ethanol]
- effect of ethanol solely on [3H]EBOB binding [3]: neither displaces nor modulates
- ethanol enhancement of humulone-mediated [3H]EBOB displacement [4, 16]: did not alter; also recorded: did not enhance
- effect of ethanol alone on GABA-induced [3H]EBOB binding ([4]; ethanol 30 mM): unaffected
- ethanol enhancement of humulone-mediated [3H]EBOB displacement [9, 16]: did not alter; also recorded: did not enhance
- effect of ethanol alone on GABA-induced [3H]EBOB binding ([9]; ethanol 30 mM): unaffected
- ethanol enhancement of humulone-mediated [3H]EBOB displacement ([11]; ethanol 30 mM co-incubated with humulone 1 μM, α6β3δ): did not significantly enhance
- effect of ethanol alone on GABA-induced [3H]EBOB displacement ([11]; ethanol 30 mM, α6β3δ): no effect; also recorded: unaffected

Structure (SMILES): COc1cc(O)c(CC=C(C)C)c2c1C(=O)CC(c1ccc(O)cc1)O2 (stereo not drawn) [IXN, isoxanthohumol]
- [3H]EBOB displacement normalized to the maximum radioligand binding in the presence of 3 μM GABA alone [1]: 14.4 ± 0.9%

Structure (SMILES): CC(C)=CCC1=C(O)C(O)(CC=C(C)C)C(=O)C(C(=O)C(C)C)=C1O (stereo not drawn) [cohumulone]
- modulatory effects on GABAA receptors (GABAA receptors): weak modulatory effects
